According to ChEMBL document CHEMBL5705887, “Distinct concentration-dependent effects of the polo-like kinase 1-specific inhibitor GSK461364A, including differential effect on apoptosis” (Cancer Res, 2009):
Calls of active or inactive are those of the source. The calls are words filed in the database; no cut-off is given here.

Tests used:
[1] = Antiproliferative activity against human PL45 cells assessed as viable cell signal at maximum growth inhibition incubated for 72 hrs by celltiter-glo assay relative to control; type: functional
A549 = experiment: Induction of mitotic arrest in human A549 cells assessed as micronucleation at 20 nmol/L incubated for 16 hrs by DAPI staining based confocal microscopic analysis; type: functional, cell-based
[2] = target: Cytoplasmic tyrosine-protein kinase BMX (Homo sapiens) (UniProt P51813); experiment: Inhibition of N-terminal his6-tagged recombinant human BMX expressed in baculovirus Sf21 insect cells at 10 uM relative to control
Cytoplasmic tyrosine-protein kinase BMX (Homo sapiens), sequence (P51813 whole entry): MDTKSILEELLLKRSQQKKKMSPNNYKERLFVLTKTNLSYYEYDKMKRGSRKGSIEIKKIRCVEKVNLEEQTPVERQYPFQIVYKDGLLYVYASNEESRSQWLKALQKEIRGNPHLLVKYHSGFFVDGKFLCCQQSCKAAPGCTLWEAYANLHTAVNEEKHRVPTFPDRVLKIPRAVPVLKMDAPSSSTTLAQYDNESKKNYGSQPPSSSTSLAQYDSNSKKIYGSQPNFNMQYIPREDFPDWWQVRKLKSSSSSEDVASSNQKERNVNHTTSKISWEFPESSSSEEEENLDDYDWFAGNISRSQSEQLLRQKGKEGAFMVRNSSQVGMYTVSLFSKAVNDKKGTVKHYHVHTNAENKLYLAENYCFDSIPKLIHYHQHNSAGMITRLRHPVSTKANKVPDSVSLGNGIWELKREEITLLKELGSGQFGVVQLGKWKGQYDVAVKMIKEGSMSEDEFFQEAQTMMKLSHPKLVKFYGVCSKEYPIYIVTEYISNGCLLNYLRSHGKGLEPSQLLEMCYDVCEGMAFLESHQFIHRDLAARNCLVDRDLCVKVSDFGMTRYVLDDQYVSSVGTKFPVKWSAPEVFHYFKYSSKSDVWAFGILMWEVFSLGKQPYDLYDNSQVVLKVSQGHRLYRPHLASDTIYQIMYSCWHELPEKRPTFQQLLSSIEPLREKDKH

T-24 = experiment: Antiproliferative activity against human T24 cells assessed as viable cell signal at maximum growth inhibition incubated for 72 hrs by celltiter-glo assay relative to control; type: functional
SK-BR-3 = experiment: Antiproliferative activity against human SK-BR-3 cells assessed as of viable cell signal at minimum maximum cell growth incubated for 72 hrs by celltiter-glo assay relative to control; type: functional
COLO 205 [3] = experiment: Antitumor activity against human COLO 205 cells xenografted in Nude mouse assessed as effect on Ki67 level at 50 mg/kg, ip administered one dose every 2 day repeated for 12 days by immunohistochemistry analysis; type: functional, organism-based; conditions: time 12.0 day
HCC1954 [4] = experiment: Antiproliferative activity against human HCC1954 cells assessed as growth inhibition incubated for 72 hrs by celltiter-glo assay; type: functional
[5] = Antiproliferative activity against human PL45 cells assessed as growth inhibition incubated for 72 hrs by celltiter-glo assay; type: functional
A2780 = experiment: Antiproliferative activity against human A2780 cells assessed as viable cell signal at maximum growth inhibition incubated for 72 hrs by celltiter-glo assay relative to control; type: functional
U2OS = experiment: Antiproliferative activity against human U2OS cells assessed as growth inhibition incubated for 72 hrs by celltiter-glo assay; type: functional
[6] = target: Calcium/calmodulin-dependent protein kinase type II subunit delta (Homo sapiens) (UniProt Q13557); experiment: Inhibition recombinant human CAMKII-delta at 10 uM relative to control
Calcium/calmodulin-dependent protein kinase type II subunit delta (Homo sapiens), sequence (Q13557 whole entry): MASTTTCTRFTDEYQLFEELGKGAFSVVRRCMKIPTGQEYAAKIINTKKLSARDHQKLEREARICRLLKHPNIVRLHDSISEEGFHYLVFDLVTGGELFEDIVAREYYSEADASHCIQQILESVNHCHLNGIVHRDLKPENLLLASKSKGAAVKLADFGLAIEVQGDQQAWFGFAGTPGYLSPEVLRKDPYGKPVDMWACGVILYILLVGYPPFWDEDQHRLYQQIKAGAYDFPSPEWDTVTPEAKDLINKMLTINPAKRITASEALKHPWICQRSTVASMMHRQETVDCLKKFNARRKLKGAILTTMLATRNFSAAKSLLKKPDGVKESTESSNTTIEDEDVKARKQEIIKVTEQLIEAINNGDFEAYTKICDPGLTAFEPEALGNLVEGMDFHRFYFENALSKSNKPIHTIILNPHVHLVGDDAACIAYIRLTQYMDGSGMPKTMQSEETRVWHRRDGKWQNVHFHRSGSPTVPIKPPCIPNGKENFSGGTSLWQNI

HCC1954 [7] = experiment: Antiproliferative activity against human HCC1954 cells assessed as of viable cell signal at minimum maximum cell growth incubated for 72 hrs by celltiter-glo assay relative to control; type: functional
HN5 = experiment: Antiproliferative activity against human HN5 cells assessed as of viable cell signal at minimum maximum cell growth incubated for 72 hrs by celltiter-glo assay relative to control; type: functional
NCI-H82 [8] = experiment: Antiproliferative activity against human NCI-H82 cells assessed as growth inhibition incubated for 72 hrs by celltiter-glo assay; type: functional
THP-1 = experiment: Antiproliferative activity against human THP-1 cells assessed as of viable cell signal at minimum maximum cell growth incubated for 72 hrs by celltiter-glo assay relative to control; type: functional
A-427 = experiment: Antiproliferative activity against human A-427 cells assessed as of viable cell signal at minimum maximum cell growth incubated for 72 hrs by celltiter-glo assay relative to control; type: functional
SK-MEL-5 = experiment: Antiproliferative activity against human SK-MEL-5 cells assessed as growth inhibition incubated for 72 hrs by celltiter-glo assay; type: functional
COLO 205 [9] = experiment: Antitumor activity against human COLO 205 cells xenografted in Nude mouse assessed as increase in pHH3 level at 50 to 100 mg/kg, ip measured at 24 to 48 hrs by immunohistochemistry analysis; type: functional, organism-based; conditions: dose 50-100 mg/kg, time 24-48 hrs
MCF7 = experiment: Antiproliferative activity against human MCF7 cells assessed as viable cell signal at maximum growth inhibition incubated for 72 hrs by celltiter-glo assay relative to control; type: functional
Calu-1 [10] = experiment: Antiproliferative activity against human Calu-1 cells assessed as viable cell signal at maximum growth inhibition incubated for 72 hrs by celltiter-glo assay relative to control; type: functional
NCI-H82 [11] = experiment: Antiproliferative activity against human NCI-H82 cells assessed as of viable cell signal at minimum maximum cell growth incubated for 72 hrs by celltiter-glo assay relative to control; type: functional
COLO 205 [12] = experiment: Antitumor activity against human COLO 205 cells xenografted in Nude mouse assessed as increase in pIk1 level at 50 mg/kg, ip measured at 24 hrs by immunohistochemistry analysis; type: functional, organism-based
COLO 205 [13] = experiment: Antitumor activity against human COLO 205 cells xenografted in ip dosed Nude mouse assessed as increase in pHH3 level measured at 24 to 48 hrs by […]; type: functional, organism-based; conditions: dose 50-100 mg/kg, time 24-48 hrs
Hep 3B2 = experiment: Antiproliferative activity against human Hep3B cells assessed as viable cell signal at maximum growth inhibition incubated for 72 hrs by celltiter-glo assay relative to control; type: functional
RPMI-8226 = experiment: Antiproliferative activity against human RPMI-8226 cells assessed as viable cell signal at maximum growth inhibition incubated for 72 hrs by celltiter-glo assay relative to control; type: functional
SK-MEL-28 = experiment: Antiproliferative activity against human SK-MEL-28 cells assessed as growth inhibition incubated for 72 hrs by celltiter-glo assay; type: functional
SJSA-1 = experiment: Antiproliferative activity against human SJSA-1 cells assessed as of viable cell signal at minimum maximum cell growth incubated for 72 hrs by celltiter-glo assay relative to control; type: functional
T47D = experiment: Antiproliferative activity against human T47D cells assessed as viable cell signal at maximum growth inhibition incubated for 72 hrs by celltiter-glo assay relative to control; type: functional
Calu-1 [14] = experiment: Antiproliferative activity against human Calu-1 cells assessed as of viable cell signal at minimum maximum cell growth incubated for 72 hrs by celltiter-glo assay relative to control; type: functional
COLO 205 [15] = experiment: Antitumor activity against human COLO 205 cells xenografted in Nude mouse assessed as tumor growth delay time at 100 mg/kg, ip administered every 2 to 4 days; type: functional; conditions: time 2-4 day
SCLC = experiment: Antiproliferative activity against human SCLC cells assessed as growth inhibition incubated for 72 hrs by celltiter-glo assay; type: functional
A498 = experiment: Antiproliferative activity against human A498 cells assessed as viable cell signal at maximum growth inhibition incubated for 72 hrs by celltiter-glo assay relative to control; type: functional
OVCAR-4 = experiment: Antiproliferative activity against human OVCAR-4 cells assessed as growth inhibition incubated for 72 hrs by celltiter-glo assay; type: functional
NCI-H460 = experiment: Antiproliferative activity against human NCI-H460 cells assessed as growth inhibition incubated for 72 hrs by celltiter-glo assay; type: functional
COLO 205 [16] = experiment: Antitumor activity against human COLO 205 cells xenografted in Nude mouse assessed as increase in pHH3 level at 50 to 100 mg/kg, ip administered one dose every 2 day repeated for 12 days by immunohistochemistry analysis; type: functional, organism-based; conditions: dose 50-100 mg/kg, time 12.0 day
MDA-MB-468 = experiment: Induction of mitotic arrest in human MDA-MB-468 cells assessed as effect on pHH3 level at 10 to 250 nmol/L incubated for 19 hrs by ELISA analysis; type: functional, cell-based; conditions: dose 10-250 nmol/L
MX1 = experiment: Antiproliferative activity against human MX1 cells assessed as of viable cell signal at minimum maximum cell growth incubated for 72 hrs by celltiter-glo assay relative to control; type: functional
U-87 MG = experiment: Antiproliferative activity against human U-87 MG cells assessed as of viable cell signal at minimum maximum cell growth incubated for 72 hrs by celltiter-glo assay relative to control; type: functional, U-87MG ATCC
SW-620 = experiment: Antiproliferative activity against human SW620 cells assessed as viable cell signal at maximum growth inhibition incubated for 72 hrs by celltiter-glo assay relative to control; type: functional

For `C[C@@H](Oc1cc(-n2cnc3ccc(CN4CCN(C)CC4)cc32)sc1C(N)=O)c1ccccc1C(F)(F)F` [GSK-461364], the Emax [1] was 267%, the Activity (A549) was “Active” and the inhibition [2] was 57%. For the same compound, the Emax (T-24) was 692%, the Emin (SK-BR-3) was 54.6% and the Activity (COLO 205 [3]) was “Active”. For the same compound, the GI50 (HCC1954 [4]) was 14.1 nM, the GI50 [5] was 21.9 nM and the Emax (A2780) was 977%. It also gave a GI50 (U2OS) of 41.7 nM, an inhibition [6] of 88% and an Emin (HCC1954 [7]) of 90.9%. The Emin (HN5) was 39.8%, the GI50 (NCI-H82 [8]) was 4.85 nM and the Emin (THP-1) was 60.3%. For the same compound, the Emin (A-427) was 15.4%, the GI50 (SK-MEL-5) was 28.4 nM and the Activity (COLO 205 [9]) was “Active”. For the same compound, the Emax (MCF7) was 429%, the Emax (Calu-1 [10]) was 371% and the Emin (NCI-H82 [11]) was 22.8%. For the same compound, the Activity (COLO 205 [12]) was “Active”, the Activity (COLO 205 [13]) was “Dose-Dependent Effect” and the Emax (Hep 3B2) was 220%. For the same compound, the Emax (RPMI-8226) was 515%, the GI50 (SK-MEL-28) was 381 nM and the Emin (SJSA-1) was 123.8%. It also gave an Emax (T47D) of 320%, an Emin (Calu-1 [14]) of 179.8% and a Time (COLO 205 [15]) of 18 days. It also gave a GI50 (SCLC) of 17.4 nM, an Emax (A498) of 774% and a GI50 (OVCAR-4) of 24.2 nM. For the same compound, the GI50 (NCI-H460) was 37.8 nM, the Activity (COLO 205 [16]) was “Active” and the Activity (MDA-MB-468) was “Active”. For the same compound, the Emin (MX1) was 161.5%, the Emin (U-87 MG) was 0.1% and the Emax (SW-620) was 634%.
